2 compounds from US20260376293A1, “METHODS FOR STUDYING GPR158 PHARMACOLOGY AND IDENTIFICATION OF ITS LIGANDS” (UNIVERSITY OF FLORIDA RESEARCH FOUNDATION, INCORPORATED, priority 2022, published 2026) can be followed below.

This test has as its target T1, GPR158-RGS7/Gβ5 complex (Homo sapiens, UniProt Q5T848).
T1 construct: substituting amino acids to alanine in full-length GPR158; expressed in transfected cells; host or cells: HEK293FT
T1 sequence (Q5T848 24-1215): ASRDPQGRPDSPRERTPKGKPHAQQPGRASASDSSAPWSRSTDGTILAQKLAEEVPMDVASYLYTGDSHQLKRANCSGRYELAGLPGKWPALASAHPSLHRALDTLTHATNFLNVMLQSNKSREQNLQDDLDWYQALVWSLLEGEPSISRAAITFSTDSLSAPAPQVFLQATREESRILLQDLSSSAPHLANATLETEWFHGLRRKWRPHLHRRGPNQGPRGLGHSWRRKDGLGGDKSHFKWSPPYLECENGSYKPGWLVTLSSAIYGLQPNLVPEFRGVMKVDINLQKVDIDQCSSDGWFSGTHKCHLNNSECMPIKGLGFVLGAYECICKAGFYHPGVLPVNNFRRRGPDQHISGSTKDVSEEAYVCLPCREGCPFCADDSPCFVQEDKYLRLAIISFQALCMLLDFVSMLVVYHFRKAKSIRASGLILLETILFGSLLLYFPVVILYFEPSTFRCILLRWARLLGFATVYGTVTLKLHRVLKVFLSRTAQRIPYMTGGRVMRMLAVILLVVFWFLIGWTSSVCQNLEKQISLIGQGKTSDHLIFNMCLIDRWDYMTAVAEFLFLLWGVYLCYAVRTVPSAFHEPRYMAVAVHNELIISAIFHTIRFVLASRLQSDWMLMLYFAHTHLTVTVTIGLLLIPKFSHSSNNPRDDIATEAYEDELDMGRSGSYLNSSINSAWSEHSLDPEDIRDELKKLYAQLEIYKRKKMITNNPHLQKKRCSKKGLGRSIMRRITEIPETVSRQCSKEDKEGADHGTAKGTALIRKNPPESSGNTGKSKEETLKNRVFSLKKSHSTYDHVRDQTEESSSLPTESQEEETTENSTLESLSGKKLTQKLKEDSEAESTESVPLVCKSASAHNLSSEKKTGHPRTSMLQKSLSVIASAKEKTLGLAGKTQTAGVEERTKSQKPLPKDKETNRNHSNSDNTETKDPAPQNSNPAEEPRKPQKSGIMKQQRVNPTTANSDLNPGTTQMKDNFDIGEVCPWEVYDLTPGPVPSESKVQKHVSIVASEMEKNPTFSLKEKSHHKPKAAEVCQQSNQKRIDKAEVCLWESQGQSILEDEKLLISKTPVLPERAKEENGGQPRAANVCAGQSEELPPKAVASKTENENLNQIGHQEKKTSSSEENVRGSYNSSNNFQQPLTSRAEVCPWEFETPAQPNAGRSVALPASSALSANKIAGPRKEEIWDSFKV
T1 sequence (P49802 1-495 partner): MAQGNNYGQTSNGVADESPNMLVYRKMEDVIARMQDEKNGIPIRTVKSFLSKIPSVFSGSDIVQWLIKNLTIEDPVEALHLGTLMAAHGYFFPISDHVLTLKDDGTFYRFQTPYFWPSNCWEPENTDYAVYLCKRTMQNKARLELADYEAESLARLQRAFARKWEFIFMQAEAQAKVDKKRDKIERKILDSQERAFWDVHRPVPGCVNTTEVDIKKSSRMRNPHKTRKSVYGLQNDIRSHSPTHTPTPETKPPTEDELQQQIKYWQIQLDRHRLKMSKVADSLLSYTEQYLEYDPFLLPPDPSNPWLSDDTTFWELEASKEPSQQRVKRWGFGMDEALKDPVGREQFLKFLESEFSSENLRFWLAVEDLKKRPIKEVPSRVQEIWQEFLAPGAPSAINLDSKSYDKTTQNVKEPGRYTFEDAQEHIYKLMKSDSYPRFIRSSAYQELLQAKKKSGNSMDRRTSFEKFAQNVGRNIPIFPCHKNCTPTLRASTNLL
T1 sequence (O14775 1-395 partner): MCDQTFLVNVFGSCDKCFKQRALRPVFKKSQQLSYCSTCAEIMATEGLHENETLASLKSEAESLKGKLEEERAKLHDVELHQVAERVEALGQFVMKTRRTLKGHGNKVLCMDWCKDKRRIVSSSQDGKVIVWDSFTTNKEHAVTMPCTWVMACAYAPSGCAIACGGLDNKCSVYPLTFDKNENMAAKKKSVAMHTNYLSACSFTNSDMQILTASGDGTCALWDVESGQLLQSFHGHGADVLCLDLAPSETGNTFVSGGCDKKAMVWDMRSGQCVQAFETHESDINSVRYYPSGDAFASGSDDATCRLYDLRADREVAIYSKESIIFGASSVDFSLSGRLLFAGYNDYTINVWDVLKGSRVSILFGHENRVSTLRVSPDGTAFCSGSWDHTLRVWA
Nature of the test: BRET GAP assay, Gαo deactivation (KGAP). The following applies: for IC50: GPR158/RGS7/Gβ5, Gαo, D2R, n=4 in triplicate, mean±s.e.m., read-out: IC50 (change in GAP activity, KGAP). Format: cell-based. Here is the method: FIGS. 3A-3D. Effect of taurine on Gαo deactivation mediated by GPR158-RGS7/Gβ5 complex. A and B) Representative traces of BRET signal showing Gαo activation mediated by D2R upon application of dopamine (100 μM) at t=0 s and Gαo deactivation triggered by injection of haloperidol (100 μM) at t=15 s (arrow). Time courses were examined without or with taurine (100 μM) incubation in mock transfected cells or cells transfected with GPR158. C) Quantification of deactivation time constant of the reactions presented in 3A and 3B. 1/τ is calculated from deactivation curves of 5 independent experiments each performed in triplicate for each transfection condition. Data shown represent mean±s.e.m. ****p<0.0001, ns=p>0.05 (two-way ANOVA). Columns with no fill (Mock), columns with dotted fill (Taurine) D) Dose response profile of changes in GAP activity (KGAP) calculated by subtracting the baseline deactivation rate (1/τ) from the rate of the reaction in the presence of the GPR158/RGS7/Gβ5. […] Data shown represent mean±s.e.m of 4 independent experiments each conduced in triplicate.
FIGS. 4A-4E. Glycine slows deactivation of Gαo by GPR158-RGS7/Gβ5 complex A) Schematics of the BRET-based GAP assay. G proteins are activated at t=0 s by stimulating GPCR (D2R, 0.1 mM). After reaching steady state the GPCR activity is terminated by injection of haloperidol (0.1 mM) at t=15 s (arrow). G protein deactivation is then monitored by dissociation of the Venus-Gβγ from masGRK3ct-Nluc reporter which occurs upon GTP hydrolysis by Gαo quenching the BRET signal. B and C) Representative traces of BRET signal showing Gαo activation and deactivation time course with or without glycine (100 μM) treatment in cells without GPR158 (b) or cells transfected with GPR158 (c). D) Quantification of deactivation time constant of the reactions presented in panels b and c. 1/τ is calculated from deactivation curves of n=5 independent experiments in triplicate from each cell transfection group. Data shown represent mean±s.e.m. ****p<0.0001, ns, p>0.05 (two-way ANOVA). Columns with no fill (Mock), columns with dotted fill (Glycine), columns with angled-line fill (Taurine) E) Dose response profile of changes in GAP activity (KGAP) calculated by subtracting the baseline deactivation rate (1/τ) from the rate of the reaction in the presence of the GPR158/RGS7/Gβ5. […] Data shown represent mean±s.e.m of n=4 independent experiments each conduced in triplicate.
To understand how glycine action on GPR158 regulates intracellular cAMP the inventors focused on GPR158 interaction with RGS7/Gβ5, an established GTPase Activating Protein (GAP) for the Gαi/o proteins (38) known to regulate cAMP production (39). The inventors used a well-established cell-based assay to monitor GAP activity by following kinetics of G protein deactivation (40) (FIG. 4A). In this assay, activation of G proteins by GDP/GTP exchange in response to GPCR stimulation generates the BRET signal upon interaction of liberated Venus-Gβγ subunits with the masGRK3CT-Nluc reporter.
Cellular measurements of BRET between Venus-Gβ1γ2 and masGRK3ct-Nluc were performed to examine GAP activity of RGS protein in living cells (described in detail in Masuho et al., 2015 (40)). Cells were co-transfected with the pcDNA3.1(+) plasmid coding for dopamine D2 receptor (1), GαoA (2), masGRK3ct-Nluc (1), Venus-156-239-Gβ1 (1), Venus-1-155-Gγ2 (1), and when indicated with RGS7/Gβ5 (2), GPR158 (1) (in parenthesis the ratio of transfected DNA). […]

Several values for one entry are separate records, joined by “and”; a condition that tells them apart may be missing. Equal values may be shown once.

For the compound `NCC(=O)O` [glycine], the IC50 is ~3 µM and 2.93 µM. The “effect on Gαo deactivation” value (GPR158 co-expressed with RGS7/Gβ5, 100 μM) was “significantly decelerated Gαo deactivation”. Further, the “effect on Gαo deactivation without GPR158” value (baseline or RGS7/Gβ5 without GPR158, glycine 100 μM) is given as “no effect on either baseline Gαo deactivation or RGS7/Gβ5-assisted process”.

As for `NCCS(=O)(=O)O` [taurine, 2-aminoethanesulfonic acid], the IC50 was ~6 µM and 5.89 µM. Also, where the note is “GAP assay IC50 comparison”, the “potency of taurine as compared to glycine” value is “approximately two-fold lower potency”.
